Laboratory results taken from patent US6987106B1, “1,4-diazabicyclo[3.2.2]nonane-4-carboxylates and carboxamide derivates, production and use thereof in therapeutics” (Sanofi-Aventis, priority 1999, dated 2006).

melting point: 206 to 207 °C
Structure (SMILES): Br.CN(C(=O)N1CCN2CCC1CC2)c1ccccc1
